Measurements: patent US6110939A, “(Benzimidazolyl- and imidazopyridinyl) containing 1-(1,2-disubstituted piperidinyl) derivatives” (Janssen Pharmaceutica N.V., priority 1995, dated 2000)

Tested on: substance P induced relaxation of the pig coronary arteries
Assay: Antagonism of substance P induced relaxation of the pig coronary arteries
Format: cell-based
Details: Sus scrofa, 0.5 h; test compound 3 × 10^-7; response to 10^-9 M substance P; 30 min incubation
Protocol: Antagonism of substance P induced relaxation of the pig coronary arteries
Segments of coronary arteries taken from pigs (killed by injection of an overdose of sodium pentobarbital) were inverted and mounted for recording of isometric tension in organ baths (volume 20 ml) with the endothelium at the outside. The preparations were bathed in Krebs - Henseleit solution. The solution was kept at 37° C. and gassed with a mixture of O2 /CO2 (95/5). After stabilisation of the preparations, prostaglandin F2α (10^-5 M) was administered to induce a contraction. This was repeated until contractile responses became stable. Then prostaglandin F2α was again administered and substance P (3×10^-10 M and 10^-9 M cumulatively) was added. […] After washing away the agonists, a known concentration of a compound of formula (I) was added. After an incubation period of 30 minutes, prostaglandin F2α (10^-5 M) and the same concentrations of substance P as described above were again administered in the presence of the compound to be tested.

**Q.** How did the inhibition at 0.3 µM turn out when `Cc1cc(C)cc(C(=O)N2CC[C@H](N3CCC(Nc4nc5ccccc5n4Cc4ccccc4F)CC3)C[C@@H]2Cc2ccccc2)c1` (relative stereo) [Compound 3] was run?
**A.** 35.2%

Same assay, conditions: Sus scrofa, 0.5 h; test compound 3 × 10^-8; response to 10^-9 M substance P; 30 min incubation

**Q.** Which inhibition at 0.03 µM does the source give for `O=C(c1cc(C(F)(F)F)cc(C(F)(F)F)c1)N1CC[C@@H](N2CCC(Nc3nc4ccccc4n3Cc3ccc(CO)o3)CC2)C[C@H]1Cc1ccccc1` (relative stereo) [Compound 44] here?
**A.** 91.5%

**Q.** Which inhibition at 0.03 µM does the source give for `O=C(c1cc(C(F)(F)F)cc(C(F)(F)F)c1)N1CC[C@H](N2CCC(Nc3nc4ccccc4n3Cc3ccc(F)cc3)CC2)C[C@@H]1Cc1ccccc1` (relative stereo) [Compound 26] here?
**A.** 82.2%

**Q.** With `Cc1cc(C)cc(C(=O)N2CC[C@H](N3CCC(Nc4nc5ccccc5n4Cc4cccs4)CC3)C[C@@H]2Cc2ccccc2)c1` (relative stereo) [Compound 7] as the compound, how does the inhibition at 0.03 µM read?
**A.** 54%

**Q.** How did the inhibition at 0.03 µM turn out when `CCOCCn1c(NC2CCN([C@@H]3CCN(C(=O)c4cc(C)cc(C)c4)[C@@H](Cc4ccccc4)C3)CC2)nc2ccccc21` (relative stereo) [Compound 2] was run?
**A.** 41.1%

**Q.** With `Cc1nc(C)c(Cn2c(NC3CCN([C@H]4CCN(C(=O)c5cc(C(F)(F)F)cc(C(F)(F)F)c5)[C@@H](Cc5ccccc5)C4)CC3)nc3cccnc32)o1` (relative stereo) [Compound 17] as the compound, how does the inhibition at 0.03 µM read?
**A.** 94.5%

**Q.** Which inhibition at 0.03 µM does the source give for `Cc1cc(C)cc(C(=O)N2CC[C@H](N3CCC(Cc4nc5ccccc5n4Cc4csc(C)n4)CC3)C[C@@H]2Cc2ccccc2)c1` (relative stereo) [Compound 11] here?
**A.** 81.1%

**Q.** Which inhibition at 0.03 µM does the source give for `O=C(c1cc(C(F)(F)F)cc(C(F)(F)F)c1)N1CC[C@@H](N2CCC(Nc3nc4ccccc4n3Cc3ccc(CO)o3)CC2)C[C@@H]1Cc1ccccc1` (relative stereo) [Compound 43] here?
**A.** 85.2%

**Q.** `CCOCCn1c(N[C@@H]2CCN(C(=O)c3cc(C(F)(F)F)cc(C(F)(F)F)c3)[C@@H](Cc3ccc(F)c(F)c3)C2)nc2ccccc21` (relative stereo) [Compound 147] was tested. Which inhibition at 0.03 µM did it give?
**A.** 95.6%

**Q.** With `Cc1ccc(Cn2c(C(O)C3CCN([C@H]4CCN(C(=O)c5cc(C(F)(F)F)cc(C(F)(F)F)c5)[C@@H](Cc5ccccc5)C4)CC3)nc3ccccc32)o1` (stereo partly shown) [Compound 21] as the compound, how does the inhibition at 0.03 µM read?
**A.** 95.8%

**Q.** How did the inhibition at 0.03 µM turn out when `O=C(c1cc(C(F)(F)F)cc(C(F)(F)F)c1)N1CC[C@H](N2CCC(Oc3nc4ccccc4n3Cc3ccc(F)cc3)CC2)C[C@@H]1Cc1ccccc1` (relative stereo) [Compound 24] was run?
**A.** 100%

**Q.** How did the inhibition at 0.03 µM turn out when `Cc1ccc(Cn2c(NC3CCN([C@@H]4CCN(C(=O)c5cc(C(F)(F)F)cc(C(F)(F)F)c5)[C@H](Cc5ccccc5)C4)CC3)nc3ccccc32)o1` (relative stereo) [Compound 28] was run?
**A.** 100%

**Q.** Which inhibition at 0.03 µM does the source give for `O=C(c1cc(C(F)(F)F)cc(C(F)(F)F)c1)N1CC[C@@H](N2CCC(Oc3nc4ccccc4n3Cc3ccc(F)cc3)CC2)C[C@@H]1Cc1ccccc1` (relative stereo) [Compound 25] here?
**A.** 100%

**Q.** Which inhibition at 0.03 µM does the source give for `CCOCCn1c(NC2CCN([C@H]3CCN(C(=O)c4cc(C(F)(F)F)cc(C(F)(F)F)c4)[C@@H](Cc4ccccc4)C3)CC2)nc2ccccc21` (relative stereo) [Compound 5] here?
**A.** 80.7%

**Q.** With `CCOCCn1c(NC2CCN([C@H]3CCN(C(=O)c4cc(C)cc(C)c4)[C@@H](Cc4ccccc4)C3)CC2)nc2ccccc21` (relative stereo) [Compound 1] as the compound, how does the inhibition at 0.03 µM read?
**A.** 15%

Same assay, conditions: Sus scrofa, 0.5 h; test compound 3 × 10^-9; response to 10^-9 M substance P; 30 min incubation

**Q.** Which inhibition at 0.003 µM does the source give for `Cc1ccc(Cn2c(NC3CCN([C@@H]4CCN(C(=O)c5cc(C(F)(F)F)cc(C(F)(F)F)c5)[C@@H](Cc5ccccc5)C4)CC3)nc3cccnc32)o1` (relative stereo) [Compound 20] here?
**A.** 68.9%

**Q.** Which inhibition at 0.003 µM does the source give for `Cc1ccc(Cn2c(C(O)C3CCN(C4CCN(C(=O)c5cc(C(F)(F)F)cc(C(F)(F)F)c5)C(Cc5ccccc5)C4)CC3)nc3ccccc32)o1` (stereo not shown) [Compound 23] here?
**A.** 94.3%

**Q.** For `Cc1nc(C)c(Cn2c(NC3CCN([C@@H]4CCN(C(=O)c5cc(C(F)(F)F)cc(C(F)(F)F)c5)[C@@H](Cc5ccccc5)C4)CC3)nc3cccnc32)o1` (relative stereo) [Compound 18], which inhibition at 0.003 µM is on record?
**A.** 73.7%

**Q.** With `CCOCCn1c(N[C@@H]2CCN(C(=O)c3cc(C(F)(F)F)ccc3C(F)(F)F)[C@H](Cc3ccc(Cl)cc3)C2)nc2ccccc21` (relative stereo) [Compound 145] as the compound, how does the inhibition at 0.003 µM read?
**A.** 92.2%
